Test results from patent US20260216348A1, “IRAK DEGRADATION AGENT AND USE THEREOF” (Increland, priority 2023, published 2026).
Like-named read-outs stand apart in the source and are kept apart here.

Columns and labels:
[1] = test system: LPS/IL-1β-induced IL-6 secretion in human peripheral blood mononuclear cells (PBMCs); test: Inhibition of LPS/IL-1β-induced IL-6 secretion in human PBMCs (IL-6 ELISA); assay type: cell-based; details: PBMC, LPS 10 ng/mL + IL-1β 20 ng/mL, 24 h pre-incubation, 20 h stimulation
In short: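 IC50 values come from fitted curves of IL-6 levels, determined by ELISA (OD450, standard curve) in supernatants diluted 200-fold. Human PBMCs received 5-fold serial compound dilutions (top 1 μM) for 24 h before a 20 h challenge with final 10 ng/mL LPS and 20 ng/mL IL-1β, 37 °C, 5% CO2.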

[2] = target: T1, IRAK4 (Homo sapiens, UniProt Q9NWZ3); test: IRAK4 protein degradation in THP1 cells (Western blot); assay type: cell-based; details: THP-1 cells, 24 h
T1 construct: Effect of the Compounds on IRAK4 Protein Degradation in THP1 Cells; endogenous in cells; host or cells: THP-1 cells
T1 sequence (Q9NWZ3 1-460): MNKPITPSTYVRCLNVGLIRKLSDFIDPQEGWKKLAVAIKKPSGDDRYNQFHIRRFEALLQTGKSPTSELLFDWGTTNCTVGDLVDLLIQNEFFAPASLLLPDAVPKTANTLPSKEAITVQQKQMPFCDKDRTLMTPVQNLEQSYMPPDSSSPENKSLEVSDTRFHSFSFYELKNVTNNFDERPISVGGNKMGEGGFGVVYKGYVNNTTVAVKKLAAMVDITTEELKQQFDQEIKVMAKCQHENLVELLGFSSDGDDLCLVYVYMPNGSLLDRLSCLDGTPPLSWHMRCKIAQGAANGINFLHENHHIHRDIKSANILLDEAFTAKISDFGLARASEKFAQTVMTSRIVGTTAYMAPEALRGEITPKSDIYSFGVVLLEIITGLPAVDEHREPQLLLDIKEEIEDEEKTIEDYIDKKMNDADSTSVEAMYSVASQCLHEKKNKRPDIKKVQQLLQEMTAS
In short: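 THP-1 cells (2×10^5/well) were treated with 5-fold serial compound dilutions for 24 h at 37 °C, then lysed with proteasome/phosphatase inhibitors. IRAK4 was detected by Western blot with chemiluminescence and semi-quantified by densitometry. DC50 came from the concentration–response.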

[3] = Pharmacokinetic experiment on SD rats (iv and intragastric); assay type: in vivo; details: Sprague-Dawley, rat, plasma; for Cmax: read-out: Peak plasma concentration Cmax
Experimental: Pharmacokinetic experiment on SD rats: in this experiment, two administration modes: oral intragastric administration and tail vein injection were selected. Oral administration was performed at a dose of 5 mg/kg using the compounds of the present disclosure. The administration volume was 10 mL/kg. Prior to use, an appropriate amount of the drug was accurately weighed and first dissolved in dimethyl sulfoxide (DMSO). An appropriate amount of Solutol and H2O were then added in sequence at a final volume ratio of 5% DMSO, 10% Solutol and 85% H2O. The mixture was sonicated and vortexed to homogeneity to prepare a clear drug solution with a concentration of 0.5 mg/mL. Intravenous administration was performed at a dose of 1 mg/kg using the compounds of the present disclosure. The administration volume was 10 mL/kg. Prior to use, an appropriate amount of each drug was accurately weighed separately, followed by the sequential addition of a suitable volume of PEG 400 and Saline at a final volume ratio of 20% PEG 400 to 80% Saline. The mixture was sonicated and vortexed to homogeneity to prepare a clear drug solution with a concentration of 0.1 mg/mL.
6 SD rats, each with body weight of 180-220 g, were randomly grouped into 2 groups. The animals were fasted overnight with free access to water. For the first group, intragastric administration was performed, and 200 μL of blood was collected from the orbital venous plexus into anticoagulant tubes at 15 min, 30 min, 1 h, 2 h, 4 h, 6 h, 8 h and 24 h post-administration, respectively. Within one hour, the blood samples were centrifuged at 10000 rpm for 20 m at 4° C. (preserved on an ice box prior to centrifugation). The upper supernatant, i.e., plasma, was harvested and stored in a refrigerator at −20° C. for subsequent LC-MS/MS analysis. For the second group, intravenous administration was conducted, and 200 μL of blood was collected from the orbital venous plexus into anticoagulant tubes at 5 min, 15 min, 30 min, 1 h, 2 h, 4 h, 8 h and 24 h post-administration, respectively. Within one hour, the blood samples were centrifuged at 10000 rpm for 20 min at […] (preserved on an ice box prior to centrifugation). The upper supernatant, i.e., plasma, was harvested and stored in a refrigerator at −20° C. for subsequent LC-MS/MS analysis.

| DC50 [2] [nM] | AUC ([3]; iv, 1.00 mg/kg) [ng·h/mL] | AUC(0-inf) ([3]; iv, 1.00 mg/kg) [ng·h/mL] | Cmax ([3]; iv, 1.00 mg/kg) [ng/mL] | bioavailability ([3]; po, ig 5.00 mg/kg vs iv 1.00 mg/kg, read-out: Oral bioavailability Fobs) [%] | AUC ([3]; po, ig, 5.00 mg/kg) [ng·h/mL] | AUC(0-inf) ([3]; po, ig, 5.00 mg/kg) [ng·h/mL] | Cmax ([3]; po, ig, 5.00 mg/kg) [ng/mL] | SMILES | IC50 [1] [nM] |
| --- | --- | --- | --- | --- | --- | --- | --- | --- | --- |
| 1.24 | 1480 ± 167 | 1700 ± 254 | 272 ± 34.5 |  |  |  |  | CN(C)c1cc2nn([C@H]3CC[C@H](CN4CCC(n5cc6c(F)cc(N7CCC(=O)NC7=O)cc6n5)CC4)CC3)cc2cc1NC(=O)c1cnn2cccnc12 [TM-174] | 1.49 |
| 11.7 | 4140 ± 1290 | 4220 ± 1300 | 920 ± 124 |  |  |  |  | CN(C)c1cc2nn([C@H]3CC[C@H](CN4C[C@@H](n5cc6cc(C7CCC(=O)NC7=O)c(F)cc6n5)[C@@H](F)C4)CC3)cc2cc1NC(=O)c1cnn2cccnc12 (some centres unmarked) [TM-241] | 6.35 |
| 3.21 | 2010 ± 361 | 2440 ± 585 | 784 ± 126 |  |  |  |  | CN(C)c1cc2nn([C@H]3CC[C@H](CN4C[C@@H](F)[C@H](n5cc6cc(C7CCC(=O)NC7=O)ccc6n5)C4)CC3)cc2cc1NC(=O)c1cnn2cccnc12 (some centres unmarked) [TM-244] | 4.95 |
| 2.61 | 2630 ± 172 | 2670 ± 175 | 652 ± 32 |  |  |  |  | CN(C)c1cc2nn([C@H]3CC[C@H](CN4C[C@@H](F)[C@@H](n5cc6cc(C7CCC(=O)NC7=O)c(F)cc6n5)C4)CC3)cc2cc1NC(=O)c1cnn2cccnc12 (some centres unmarked) [TM-240] | 1.09 |
| 1.56 |  |  |  |  |  |  |  | CN(C)c1cc2nn([C@H]3CC[C@H](CN4C[C@@H](n5cc6cc(N7CCC(=O)NC7=O)ccc6n5)[C@@H](F)C4)CC3)cc2cc1NC(=O)c1cnn2cccnc12 [TM-205] | 2.47 |
| 2.38 | 2280 ± 190 | 2400 ± 354 | 613 ± 39.8 |  |  |  |  | CN(C)c1cc2nn([C@H]3CC[C@H](CN4C[C@H](F)[C@@H](n5cc6cc(C7CCC(=O)NC7=O)c(F)cc6n5)C4)CC3)cc2cc1NC(=O)c1cnn2cccnc12 (some centres unmarked) [TM-249] | 3.08 |
| 1.41 | 2910 ± 62.8 | 2980 ± 114 | 554 ± 60.7 |  |  |  |  | CN(C)c1cc2nn([C@H]3CC[C@H](CN4C[C@@H](F)[C@H](n5cc6cc(C7CCC(=O)NC7=O)c(F)cc6n5)C4)CC3)cc2cc1NC(=O)c1cnn2cccnc12 (some centres unmarked) [TM-245] | 2.58 |
| 1.23 | 1170 ± 260 | 1220 ± 333 | 790 ± 65.9 | 33.2 | 1900 ± 565 | 2030 ± 529 | 433 ± 198 | CN(C)c1cc2nn([C@H]3CC[C@H](CN4CC[C@@H](n5cc6cc(C7CCC(=O)NC7=O)c(F)cc6n5)[C@@H](F)C4)CC3)cc2cc1NC(=O)c1cnn2cccnc12 (some centres unmarked) [TM-135] | 2.66 |
